US8927227B2, “Method of measuring effects of components on cell reactive oxygen species production” (Colgate-Palmolive Company, priority 2008, dated 2015)

Tested on: Human histocytic lymphoma U937 cells
Assay: Intracellular ROS fluorescence assay (DCF-DA / DHR123) in U937 cells exposed to H2O2 and LPS
Format: cell-based
Experimental: Human histocytic lymphoma U937 cells (ATCC, Manassas, Va.) were initially cultured in RPMI-1640 media (ATCC, Manassas, Va.) containing 10% serum and 1% penicillin, and then transferred at a concentration of 2×10^5 cells/ml into media containing 1 ng/ml PMA for 48 hours at 37° C. The cells were starved overnight in serum-free culture media before exposure to dye.
Cells were washed with PBS buffer twice, and divided into two sets to be incubated with DCF-DA or DHR123 (Calibochem, La Jolla, Calif.) for 30 minutes at 30° C. Cells are washed with PBS twice to remove residual dye. Appropriate experimental controls are also maintained.
Cells are then divided into several groups, and various amounts of a 1% solution of α-tocopherol (Vitamin E), substance 1, or substance 2 is added to each of the groups, and incubated at 37° C. for 15 minutes. Cells then were washed twice with PBS to remove residual amounts of test compounds. ROS agents H2O2 and LPS then were added and incubated for different periods of time. Fluorescence of the cells then were read at excitation 485 nm and emission 530 nm for up to 5 hours.

SMILES: Cc1c(C)c2c(c(C)c1O)CC[C@@](C)(CCC[C@H](C)CCC[C@H](C)CCCC(C)C)O2 [α-tocopherol]
- reduction of oxidative level (2 ppm active, 2.5 mM hydrogen peroxide, FIG. 2): approximately 30%
- capability in scavenging ROS or free radicals (10 ppm and 100 ppm active compared with 2 ppm, 2.5 mM hydrogen peroxide, FIG. 2): did not show enhanced capability in scavenging ROS or free radicals
- cell fluorescence versus cells incubated without test compound (two hours of incubation, ROS at 2.5 mM and ROS stimulant, FIG. 1): cells incubated in the absence of a test compound but in the presence of the ROS at 2.5 mM and ROS stimulant fluoresce greater
